Literature values in patent publication US20230210769A1, “METHODS OF TREATMENT USING NICLOSAMIDE” (priority 2020, published 2023).

Experiments:
[1] = tested on: SARS-CoV, influenza virus, MERS-CoV, ZIKV, JEV, HCV, EBOV, HRVs, CHIKV, HAdV, EBV
[2] = tested on: SARS-CoV-2 (a.k.a. 2019-nCoV)

O=C(Nc1ccc([N+](=O)[O-])cc1Cl)c1cc(Cl)ccc1O [niclosamide, 5-chloro-N-(2-chloro-4-nitrophenyl)-2-hydroxybenzamide]
anti-viral effects in vitro against various viral infections [1]: anti-viral effects in vitro
anti-viral effects against SARS-CoV-2 [2]: anti-viral effects
